Where a name gives a salt, the structure may show the parent alone.
Key:
[1] = aqueous solubility; format: physicochemical; settings: salt compared with the free acid
[2] = bioavailability; settings: attributed to the higher aqueous solubility
[3] = hygroscopicity at high relative humidity; format: physicochemical; settings: even at relative humidities as high as 90 RH
[4] = stability of the salt; format: physicochemical

solubility in aqueous media [1] | bioavailability [2] | hygroscopicity [3] | stability [4] | SMILES
sparingly soluble | – | – | – | CCO[C@@H](Cc1ccc(OCCN2c3ccccc3Oc3ccccc32)cc1)C(=O)O [(2S)-2-Ethoxy-3-{4-[2-(10H-phenoxazin-10-yl)ethoxy]phenyl}pr] [(2S)-2-Ethoxy-3-{4-[2-(10H-phenoxazin-10-yl)ethoxy]phenyl}propanoic acid]
significantly higher aqueous solubility | good bioavailability | not hygroscopic | highly stable | CCO[C@@H](Cc1ccc(OCCN2c3ccccc3Oc3ccccc32)cc1)C(=O)O [(L)-Arginine salt, (L)-Arginine (2S)-2-Ethoxy-3-{4-[2-(10H-phenoxazin-10-yl)ethoxy]phenyl}propanoate]

— patent US7414128B2, “Crystalline R-guanidines, Arginine or (L)-Arginine (2S)-2-Ethoxy-3-{4-[2-(10H -phenoxazin-10-yl)ethoxy]phenyl}propanoate” (Dr. Reddy's Laboratories, Limited, priority 2002, dated 2008)
